How the values were obtained:
N. europaea = experiment: standard nitrification inhibition assay (NO2- production, Griess); assay type: cell-based, Nitrosomonas europaea; settings: [NH4+]=3 mM, [inhibitor]=0.3 mM (10 mol %), pH 7.5, 30° C., 60 min
Experimental: (§1) Cells of N. multiformis and N. europaea were cultivated to the mid-exponential growth phase (OD600=0.1, [NO2^−] approximately 800 μM) and harvested by filtration onto 0.2 μm membrane filters (Mixed Cellulose Ester (MCE), Sigma Aldrich). The cells were washed with 2×100 mL of 0.1 M sodium phosphate buffer (NaPB), containing 0.2 mM MgSO4 at pH 7.5. The cells were washed from the filter paper by transferring it to a sterile 50 mL tube and resuspending in NaPB (15 mL), followed by 5 s of vortexing (Ratek, Australia) and 3 s of sonication (Vevor, Australia). […] Experiments were performed in triplicate.
(§2) In a deep 96-well plate (2 mL capacity), 980 μL of the bacterial inoculum (OD600=0.03) was added to the inhibitor (10 μL, 30 mmol L^−1 in Milli-Q water), the solutions were mixed thoroughly and pre-incubated in the dark for 5 minutes at 100 rpm and 30° C. (NH4)2SO4 (10 μL, 150 mM, from a prepared sterile solution containing 19.8 g L^−1 (NH4)2SO4 in Milli-Q water) was then added using a multi-channel pipette. The plate was covered with a with an O2 permeable membrane to ensure aeration (Breathe-Easy® sealing membrane, Sigma Aldrich) and incubated in a temperature-regulated rotary incubator (Ratek, Australia) in the dark for 60 minutes at 30° C. and 100 rpm. An aliquot of the reaction solution ([…]) was transferred to a 96-well spectrophotometric plate to which 50 µL of Griess reagent was added. The colour was allowed to develop for 15 minutes at room temperature, and the absorbance was measured at 540 nm. Each assay was accompanied by control treatments to determine the 0% and 100% NO2 signal. The percentage inhibition was calculated according to eqn. 1 from the NO2 production of the cells in NaPB (i) without additive (‘untreated cells’: 0% signal), (ii) with [NH4^+]=3 mM (‘uninhibited’ cells: 100% signal) and (iii) with [NH4^+]=3 mM and [inhibitor]=0.3 mM and 0.03 mM (10 mol % and 1 mol % of [NH4^+], ‘inhibited cells’). Experiments were performed in triplicate.

N. multiformis = experiment: as above; assay type: cell-based, Nitrosospira multiformis; settings: [NH4+]=3 mM, [inhibitor]=0.3 mM (10 mol %), pH 7.5, 30° C., 60 min
Experimental: as §1, §2

soils B-E = experiment: soil incubation, N2O production in soils B-E
Experimental: Soil incubations were performed in three replicates. Each sample consisted of 6 g of sieved soil (2 mm). The soil was air-dried after collection and pre-incubated prior to the experiment for seven days at 50% water holding capacity (WHC). The soil was transferred to a gas chromatography vial (22 mL volume, clear glass, Macherey-Nagel, Germany) and compacted densely to allow 5.5-6.2 cm headspace. The soil in the vials was incubated for a total of 21 days at a constant temperature of 21° C. with an open lid to ensure gas circulation. The control incubations contained ‘untreated’ soil (deionized H2O only) and ‘fertiliser only’ soil ((NH4)2SO4; 50 mg kg^−1 soil) and accompanied each measurement. (NH4)2SO4 was applied as an aqueous solution ([…]) and introduced on the soil surface to mimic field conditions. Three inhibitor solutions were prepared from DMP and 4-MPT at concentrations of 0.5 mol %, 2.5 mol % and 5 mol % of applied fertiliser-N and applied on the soil surface. The soils reached 60% WHC after the treatments had been applied and were kept at that moisture level by periodically adding deionized water to compensate for evaporation losses. At the day of measurement (day 1, 3, 5, 7, 14 and 21 after fertilization) the vials were closed gas-tight with a rubber septum and aluminium lid and opened again after each measurement. The N2O emission was analysed using a gas chromatograph equipped with an electron capture detector and flame ionization detector (GC-ECD/FID; Clarus 580, Perkin Elmer). A linear regression slope was used to calculate N2O—N production rates, F, according to eqn. 5:
where ΔC/Δt represents the change of the N2O concentration over the time interval t in ppbv, V represents the headspace volume in L, M represents the molar mass of N in N2O, m represents the amount of soil in g dry weight, Vm represents the molar volume of ideal gases (22.414 L mol^−1) at 0° C. and 101.325 kPa, corrected for the gas sampler using T0 (273.15 K) and Ta (air temperature in K).

C#CCNC(=O)Cn1cc(CCC)nn1 [Compound 4]
% Inhibition NE (N. europaea): 7.1 ± 1%

C#CCCn1cc(CCC)nn1 [Compound 2]
% Inhibition NE (N. europaea): 21 ± 2%
% Inhibition NM (N. multiformis): 40 ± 1%

Cc1c[nH]nc1C [DMP, 3,4-dimethylpyrazole, reference compound]
N2O production (soils B-E; Soil B, 0.5 mol %, Day 1): 0.318 ± 0.030 μg g^−1 soil h^−1
N2O production (soils B-E; Soil B, 0.5 mol %, Day 3): 0.189 ± 0.006 μg g^−1 soil h^−1
N2O production (soils B-E; Soil B, 0.5 mol %, Day 5): 0.151 ± 0.015 μg g^−1 soil h^−1
N2O production (soils B-E; Soil B, 0.5 mol %, Day 7): 0.086 ± 0.043 μg g^−1 soil h^−1
N2O production (soils B-E; Soil B, 0.5 mol %, Day 14): 0.136 ± 0.006 μg g^−1 soil h^−1
N2O production (soils B-E; Soil B, 0.5 mol %, Day 21): 0.019 ± 0.019 μg g^−1 soil h^−1
N2O production (soils B-E; Soil B, 2.5 mol %, Day 1): 0.224 ± 0.013 μg g^−1 soil h^−1
N2O production (soils B-E; Soil B, 2.5 mol %, Day 3): 0.124 ± 0.008 μg g^−1 soil h^−1
N2O production (soils B-E; Soil B, 2.5 mol %, Day 5): 0.060 ± 0.030 μg g^−1 soil h^−1
N2O production (soils B-E; Soil B, 2.5 mol %, Day 7): 0.045 ± 0.023 μg g^−1 soil h^−1
N2O production (soils B-E; Soil B, 2.5 mol %, Day 14): 0.113 ± 0.006 μg g^−1 soil h^−1
N2O production (soils B-E; Soil B, 2.5 mol %, Day 21): 0.127 ± 0.000 μg g^−1 soil h^−1
N2O production (soils B-E; Soil B, 5 mol %, Day 1): 0.209 ± 0.054 μg g^−1 soil h^−1
N2O production (soils B-E; Soil B, 5 mol %, Day 3): 0.067 ± 0.017 μg g^−1 soil h^−1
N2O production (soils B-E; Soil B, 5 mol %, Day 5): 0.058 ± 0.014 μg g^−1 soil h^−1
N2O production (soils B-E; Soil B, 5 mol %, Day 7): 0.020 ± 0.010 μg g^−1 soil h^−1
N2O production (soils B-E; Soil B, 5 mol %, Day 14): 0.052 ± 0.003 μg g^−1 soil h^−1
N2O production (soils B-E; Soil B, 5 mol %, Day 21): 0.037 ± 0.019 μg g^−1 soil h^−1
N2O production (soils B-E; Soil C, 0.5 mol %, Day 1): 0.283 ± 0.008 μg g^−1 soil h^−1
N2O production (soils B-E; Soil C, 0.5 mol %, Day 3): 0.183 ± 0.003 μg g^−1 soil h^−1
N2O production (soils B-E; Soil C, 0.5 mol %, Day 5): 0.081 ± 0.041 μg g^−1 soil h^−1
N2O production (soils B-E; Soil C, 0.5 mol %, Day 7): 0.162 ± 0.037 μg g^−1 soil h^−1
N2O production (soils B-E; Soil C, 0.5 mol %, Day 14): 0.105 ± 0.007 μg g^−1 soil h^−1
N2O production (soils B-E; Soil C, 0.5 mol %, Day 21): 0.101 ± 0.011 μg g^−1 soil h^−1
N2O production (soils B-E; Soil C, 2.5 mol %, Day 1): 0.276 ± 0.006 μg g^−1 soil h^−1
N2O production (soils B-E; Soil C, 2.5 mol %, Day 3): 0.161 ± 0.006 μg g^−1 soil h^−1
N2O production (soils B-E; Soil C, 2.5 mol %, Day 5): 0.133 ± 0.006 μg g^−1 soil h^−1
N2O production (soils B-E; Soil C, 2.5 mol %, Day 7): 0.113 ± 0.005 μg g^−1 soil h^−1
N2O production (soils B-E; Soil C, 2.5 mol %, Day 14): 0.086 ± 0.006 μg g^−1 soil h^−1
N2O production (soils B-E; Soil C, 2.5 mol %, Day 21): 0.089 ± 0.005 μg g^−1 soil h^−1
N2O production (soils B-E; Soil C, 5 mol %, Day 1): 0.228 ± 0.017 μg g^−1 soil h^−1
N2O production (soils B-E; Soil C, 5 mol %, Day 3): 0.125 ± 0.006 μg g^−1 soil h^−1
N2O production (soils B-E; Soil C, 5 mol %, Day 5): 0.099 ± 0.008 μg g^−1 soil h^−1
N2O production (soils B-E; Soil C, 5 mol %, Day 7): 0.098 ± 0.010 μg g^−1 soil h^−1
N2O production (soils B-E; Soil C, 5 mol %, Day 14): 0.085 ± 0.009 μg g^−1 soil h^−1
N2O production (soils B-E; Soil C, 5 mol %, Day 21): 0.095 ± 0.000 μg g^−1 soil h^−1
N2O production (soils B-E; Soil D, 0.5 mol %, Day 1): 0.131 ± 0.001 μg g^−1 soil h^−1
N2O production (soils B-E; Soil D, 0.5 mol %, Day 3): 0.133 ± 0.003 μg g^−1 soil h^−1
N2O production (soils B-E; Soil D, 0.5 mol %, Day 5): 0.063 ± 0.003 μg g^−1 soil h^−1
N2O production (soils B-E; Soil D, 0.5 mol %, Day 7): 0.112 ± 0.008 μg g^−1 soil h^−1
N2O production (soils B-E; Soil D, 0.5 mol %, Day 14): 0.072 ± 0.009 μg g^−1 soil h^−1
N2O production (soils B-E; Soil D, 0.5 mol %, Day 21): 0.098 ± 0.011 μg g^−1 soil h^−1
N2O production (soils B-E; Soil D, 2.5 mol %, Day 1): 0.073 ± 0.037 μg g^−1 soil h^−1
N2O production (soils B-E; Soil D, 2.5 mol %, Day 3): 0.120 ± 0.005 μg g^−1 soil h^−1
N2O production (soils B-E; Soil D, 2.5 mol %, Day 5): 0.067 ± 0.006 μg g^−1 soil h^−1
N2O production (soils B-E; Soil D, 2.5 mol %, Day 7): 0.115 ± 0.012 μg g^−1 soil h^−1
N2O production (soils B-E; Soil D, 2.5 mol %, Day 14): 0.070 ± 0.006 μg g^−1 soil h^−1
N2O production (soils B-E; Soil D, 2.5 mol %, Day 21): 0.063 ± 0.003 μg g^−1 soil h^−1
N2O production (soils B-E; Soil D, 5 mol %, Day 1): 0.114 ± 0.015 μg g^−1 soil h^−1
N2O production (soils B-E; Soil D, 5 mol %, Day 3): 0.112 ± 0.006 μg g^−1 soil h^−1
N2O production (soils B-E; Soil D, 5 mol %, Day 5): 0.039 ± 0.021 μg g^−1 soil h^−1
N2O production (soils B-E; Soil D, 5 mol %, Day 7): 0.102 ± 0.014 μg g^−1 soil h^−1
N2O production (soils B-E; Soil D, 5 mol %, Day 14): 0.056 ± 0.004 μg g^−1 soil h^−1
N2O production (soils B-E; Soil D, 5 mol %, Day 21): 0.069 ± 0.007 μg g^−1 soil h^−1
N2O production (soils B-E; Soil E, 0.5 mol %, Day 1): 0.053 ± 0.002 μg g^−1 soil h^−1
N2O production (soils B-E; Soil E, 0.5 mol %, Day 3): 0.037 ± 0.006 μg g^−1 soil h^−1
N2O production (soils B-E; Soil E, 0.5 mol %, Day 5): 0.015 ± 0.008 μg g^−1 soil h^−1
N2O production (soils B-E; Soil E, 0.5 mol %, Day 7): 0.000 ± 0.000 μg g^−1 soil h^−1
N2O production (soils B-E; Soil E, 0.5 mol %, Day 14): 0.000 ± 0.000 μg g^−1 soil h^−1
N2O production (soils B-E; Soil E, 0.5 mol %, Day 21): 0.000 ± 0.000 μg g^−1 soil h^−1
N2O production (soils B-E; Soil E, 2.5 mol %, Day 1): 0.080 ± 0.009 μg g^−1 soil h^−1
N2O production (soils B-E; Soil E, 2.5 mol %, Day 3): 0.014 ± 0.014 μg g^−1 soil h^−1
N2O production (soils B-E; Soil E, 2.5 mol %, Day 5): 0.000 ± 0.000 μg g^−1 soil h^−1
N2O production (soils B-E; Soil E, 2.5 mol %, Day 7): 0.000 ± 0.000 μg g^−1 soil h^−1
N2O production (soils B-E; Soil E, 2.5 mol %, Day 14): 0.008 ± 0.008 μg g^−1 soil h^−1
N2O production (soils B-E; Soil E, 2.5 mol %, Day 21): 0.000 ± 0.000 μg g^−1 soil h^−1
N2O production (soils B-E; Soil E, 5 mol %, Day 1): 0.045 ± 0.011 μg g^−1 soil h^−1
N2O production (soils B-E; Soil E, 5 mol %, Day 3): 0.011 ± 0.011 μg g^−1 soil h^−1
N2O production (soils B-E; Soil E, 5 mol %, Day 5): 0.000 ± 0.000 μg g^−1 soil h^−1
N2O production (soils B-E; Soil E, 5 mol %, Day 7): 0.000 ± 0.000 μg g^−1 soil h^−1
N2O production (soils B-E; Soil E, 5 mol %, Day 14): 0.007 ± 0.007 μg g^−1 soil h^−1
N2O production (soils B-E; Soil E, 5 mol %, Day 21): 0.000 ± 0.000 μg g^−1 soil h^−1
N2O production rate (soils B-E; soil B, 0.5 mol % (lowest application rate), day 1): 0.32 ng g^−1 soil h^−1
N2O production rate relative to the uninhibited soil (soils B-E; soil B, 0.5 mol %, day 1): approximately 50%
N2O production rate relative to that in the absence of the inhibitor (soils B-E; soil B, 2.5 mol %): approximately 67%
N2O production rate relative to that in the absence of the inhibitor (soils B-E; soil B, 5 mol %): approximately 67%
N2O formation rate compared to the uninhibited soil (soils B-E; soil C, 0.5 mol % and 2.5 mol %, first two weeks (P>0.05)): did not show a significantly reduced N2O formation rate
N2O production rate (soils B-E; soil C, highest application rate (5 mol %), day 21): 0.095 ng g^−1 soil h^−1
N2O production rates compared to the uninhibited soil (soils B-E; soil D (P>0.05)): No significant difference
N2O production beyond day 5 (soils B-E; soil E, 5 mol %): no N2O production was detected

C#CCOC(=O)Cn1cc(CCC)nn1 [Compound 3]
% Inhibition NE (N. europaea): 49 ± 2%
% Inhibition NM (N. multiformis): 47 ± 2%

CCCCn1cc(CCC)nn1 [Compound N013]
% Inhibition NE (N. europaea): 60 ± 1%
% Inhibition NM (N. multiformis): 54 ± 2%
